Measurements from patent US11912645B2, “Lipopeptide compounds for the treatment of pain disorders” (INSERM (Institut National de la Santé et de la Recherche …, priority 2017, dated 2024).

Assays:
Caco-2 cells [1] = assay: Absorption across Caco-2 monolayer in transwell chambers; assay type: in vitro ADME, human; details: 800 ng apical
Experimental: (§1) FIG. 5: C12-Asn-GABA crosses the epithelial barrier without modifying epithelial cells physiology. Caco-2 cells were cultivated into transwell chambers. After treatment with C12-Asn-GABA (800 ng) at the apical side, C12-Asn-GABA was quantified inside the cells and both the apical and basolateral compartments by LC-MS/MS (A); data are represented as mean±SEM, n=3 experiments of 3 wells per condition. Extracted ion chromatogram at the exact mass of GABA (104.0702 m/z) with a mass accuracy of 5 ppm of the GABA commercial standard (GABA (Std.) and apical and basolateral compartments after loading or not Caco-2 cells with 800 ng of GABA at the apical site (B); representation of one well, n=3 experiments of 3 wells per condition. Paracellular permeability assessed by the passage of FITC-dextran loaded at the apical side (C) and CXCL8 secretion assessed by ELISA (D) were monitored after treatment of Caco-2 cells at the apical side with C12-Asn-GABA (10 μM); data are represented as mean±SEM, n=3 experiments of 3 wells per condition. […]
Caco-2 cells were grown in Glutamax DMEM (Gibco, Invitrogen life technologies, Paisley, UK) supplemented with 10% heat-inactivated fetal bovine serum (FBS) (Gibco, Invitrogen life technologies, Paisley, UK), 1% nonessential amino acids and 1% antibiotics (100 U/ml penicillin and […] streptomycin (Gibco, Invitrogen life technologies, Grand Island, N.Y., USA) at 37° C. in a 5% C02 water-saturated atmosphere. Cells were seeded on Transwell inserts (Costar, Sigma-Aldrich, Saint-Quentin Fallavier, France) and absorption studies of C12-Asn-GABA and GABA were performed 16 days later. These compounds were quantified by LC-MS/MS in both apical and basolateral chambers as well as in cells. The effect of C12-Asn-GABA (1-100 μM) on paracellular permeability was also measured by mucosal-to-serosal flux of 4 kDa Fluorescein Isothiocyanate (FITC)-labelled dextran as previously described^31. […]
The initial barrier for any drug absorption is the intestinal epithelial cell wall. […] The transport of GABA alone across the cell monolayer was also assessed. […]

Caco-2 cells [2] = assay: CXCL8 secretion by Caco-2 cells (ELISA); assay type: cell-based, human; details: 1, 10, 100 μM; 24 hours
Experimental: as §1
To assess the effect of C12-Asn-GABA on paracellular permeability, transport of dextran 4 kDa FITC across a Caco-2 cell monolayer was investigated. […] In parallel, the release of CXCL8 from Caco-2 cells into the medium, of both apical and basolateral sides of the transwell, was assessed by ELISA. […]

[3] = Colon and blood levels after intracolonic administration (LC-MS/MS); assay type: in vivo, mouse; details: intracolonic 10 μM; 30 minutes or 4 hours; vs vehicle
Experimental: FIG. 6: C12-Asn-GABA inhibits capsaicin-induced visceral hypersensitivity without altering Intestinal contraction. Mice received intracolonic administration of C12-Asn-GABA (10 μM; black symbols) or vehicle (40% ethanol; white symbols) and 30 minutes or 4 hours later colon (A) and blood (B) were harvested in order to quantify C12-Asn-GABA by LC-MS/MS. Data are expressed as mean±SEM, n=8 mice per group. […] Mice received intracolonic administration of C12-Asn-GABA (10 μM; black symbols) or vehicle (40% ethanol; white symbols) and 30 minutes or 4 hours later an intracolonic administration of capsaicin (100 μg/mouse; square) or its vehicle (40% ethanol; circle). Fifteen minutes after capsaicin or vehicle treatment, visceromotor response (VMR) to increasing pressures of colorectal distension was performed. Data are expressed as mean±SEM, n=7-8 mice per group. […] Ex vivo measurement of duodenal mechanical contraction frequency (B) and amplitude (C) in response to Krebs-Ringer solution (control; white bar), to DMSO 0.2% (vehicle; gray bar) or to C12-Asn-GABA (10 μM; black bar). Data are expressed as mean±SEM, n=5-6 per group. […]
In a first set of experiment, we assessed the ability of the C12-Asn-GABA to cross the epithelial barrier, in vivo. […] The impact of C12-Asn-GABA on visceral hypersensitivity was assessed by measuring the visceromotor responses (VMR) to colorectal distension (CRD). […]

fraction of apically added compound found in the basolateral chamber (Caco-2 cells [1]; 24 h, LC-MS/MS): approximately 50% | level in epithelial cells (Caco-2 cells [1]; 24 h of incubation): low levels | concentration in the blood [3]: increased the concentration | concentration in the colonic tissue [3]: increased the concentration
SMILES: CCCCCCCCCCCC(=O)NC(CC(N)=O)C(=O)NCCCC(=O)O (centres unmarked) [C12-Asn-GABA, C11 C(O)-Asn-gamma-aminobutyric acid]
secretion of CXCL8 (apical and basolateral) (Caco-2 cells [2]): None of the tested doses (1, 10, 100 μM) and neither the vehicle modified the secretion of CXCL8
